From patent US8530623B2, “Proteasome-activating lightening peptides and compositions containing same” (ISP Investments Inc., priority 2009, dated 2013) come the findings set out here.

This experiment deals with melanin present in the epidermis of human skin samples. Put plainly: Depigmenting effect ex vivo on human skin biopsies (Fontana-Masson melanin staining). Type of experiment: cell-based. The note with it: 2 applications per day. The procedure: 6 mm diameter biopsies are taken from human skin samples. These biopsies are maintained in ex vivo survival in the presence of a specific medium (DMEM 1 g/L, HAMF12, SVF and antibiotics) on inserts deposited in 6-well plates. The biopsies are then pretreated for 24 hours with the active principle at 3% concentration at a rate of 2 applications per day. Other skin samples will not be pretreated with the active principle and will be used as the control condition. Subsequently, the biopsies are subjected to UVB irradiation at a rate of 100 mJ/cm^2. The pretreated biopsies are again treated for 24 hours with the active principle at 3% concentration at a rate of 2 applications per day. After this second treatment, a quantitative evaluation of the quantity of melanin present in the epidermis of skin samples is carried out histologically, with an optical microscope, after staining according to the Fontana-Masson method.
To do this, the skin biopsies are enclosed in paraffin and histological sections with a thickness of 4 μm are made. These sections are then stained by the Fontana-Masson technique: The paraffin is removed from the slides; the slides being hydrated and then treated with a silver ammonium hydroxide solution. […]

Where no end group is shown, it is not given here.

On to Asp-Cys-Arg-NH2 [SEQ ID No. 2], for which, where the note is “active principle at 3% concentration, 24 hours, no UVB, vs untreated skin, optical microscope”, the “melanin level (pigmentation level) in the epidermis, absence of UVB irradiation” value is “reduces the melanin level”. Moreover, the “melanin synthesis induced by UVB irradiation (pigmentation level after UVB)” value (pretreated 24 hours at 3%, UVB 100 mJ/cm^2, treated again 24 hours, vs untreated control) is “very distinctly reduced”.
